Values of other authors, collected in patent US12102628B2, “Composition and methods for the treatment of myopia” (Seinda Pharmaceutical Guangzhou Corporation, priority 2017, dated 2024).
Where two headings read alike, the source gives them in different places.

Legend:
[1] = not given; remark: listed apart in the source
myopic children = conditions: for Myopia progression: myopic children
[2] = ophthalmic use, concentrations per Table 2
M3 receptor = M3 receptor (Homo sapiens, UniProt P20309); conditions: M3 receptor-selective antagonists
Chain of M3 receptor (P20309 whole entry): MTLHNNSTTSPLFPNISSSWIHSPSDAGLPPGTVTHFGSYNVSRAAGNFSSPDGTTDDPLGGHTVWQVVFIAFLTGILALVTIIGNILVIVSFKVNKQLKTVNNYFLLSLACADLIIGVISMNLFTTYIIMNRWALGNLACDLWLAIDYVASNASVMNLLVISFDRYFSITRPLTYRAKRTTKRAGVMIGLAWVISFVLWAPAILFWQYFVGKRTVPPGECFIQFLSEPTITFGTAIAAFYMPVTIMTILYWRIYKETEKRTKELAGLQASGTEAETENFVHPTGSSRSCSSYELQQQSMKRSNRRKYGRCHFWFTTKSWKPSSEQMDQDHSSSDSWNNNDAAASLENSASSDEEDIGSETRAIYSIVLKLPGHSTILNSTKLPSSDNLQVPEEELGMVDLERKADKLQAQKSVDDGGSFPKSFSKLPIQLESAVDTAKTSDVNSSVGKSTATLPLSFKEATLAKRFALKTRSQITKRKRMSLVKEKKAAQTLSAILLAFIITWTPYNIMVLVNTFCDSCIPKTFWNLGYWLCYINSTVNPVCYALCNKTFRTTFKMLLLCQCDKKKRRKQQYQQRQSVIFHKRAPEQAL

Molecule | logP | Aqueous Solubility [1] [µg/mL] | Acting Duration [2] [days] | further results
NC(=O)C(c1ccccc1)(c1ccccc1)[C@@H]1CCN(CCc2ccc3c(c2)CCO3)C1 [Darifenacin] | 4.5 | 6030 |  | 
CN1[C@@H]2CC[C@H]1C[C@@H](OC(=O)C(CO)c1ccccc1)C2 (stereo partly drawn) [Atropine, atropine] |  |  | 7 to 14 | Effect on myopia progression (in words) (myopic children; 0.5% atropine solution): effectively slow the myopia progression; Myopia progression (myopic children; atropine concentration 0.1%): 0.47 diopter/yr; Myopia progression (myopic children; atropine concentration 0.25%): 0.45 diopter/yr; Myopia progression (myopic children; atropine concentration 0.5%): 0.04 diopter/yr; Pupil dilation diameter (pupil; 0.05% atropine solution, control group 2.93 mm): 5.52 mm; Photophobia ratio (pupil; low concentration atropine group): about 66.67%
CN1CCN(CC(=O)N2c3ccccc3C(=O)Nc3cccnc32)CC1 [Pirenzepine] |  |  | <1 | 
c1ccc(C(O[C@@H]2CCCN(CCc3ccc4c(c3)OCO4)C2)c2ccccc2)cc1 [Zamifenacin] | 4.4 | 20 |  | Affinity (pKi) (M3 receptor): 9.3
Tiotropium |  | 25000 |  | 
CN(C)CCOC(=O)C(c1ccccc1)C1(O)CCCC1 (stereo not drawn) [Cyclopentolate] |  |  | 4 | 
